Laboratory results as given in the supplement of paper PMC10307832.

What was measured:
Assay in all cases: relative viability (nuclei count vs DMSO), 5 days (fraction); higher = more cells survive
[1] = compound: C1COCCN1CC2=CC(=O)C(=CO2)OCCCCCSC3=C4C=CC(=CC4=NC=C3)C(F)(F)F [EHT 1864] + NC(=O)Nc1cc(-c2cccc(F)c2)sc1C(=O)N[C@H]1CCCNC1 [AZD7762] (partner 0.2 µM)
How it was run: (§1)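 Cells from lung cancer lines were seeded into 1536-well plates and, one day later, dosed by pin tool. Treatments were either a single drug or a fixed dose of an anchor drug with five library-drug doses (not always all listed) in √10 steps. After 5 days, nuclei were stained in a one-step fixation (final 0.05% Triton X-100, 1% formaldehyde, 1 ug/ml Hoechst) and counted on 4× images, and relative viability is the treated-to-vehicle nuclei ratio, as the median of duplicate plates.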

[2] = compound: C1COCCN1CC2=CC(=O)C(=CO2)OCCCCCSC3=C4C=CC(=CC4=NC=C3)C(F)(F)F [EHT 1864] + CC(=O)c1c(C)c2cnc(Nc3ccc(N4CCNCC4)cn3)nc2n(C2CCCC2)c1=O [Palbociclib] (partner 0.5 µM)
How it was run: as §1

[3] = compound: C1COCCN1CC2=CC(=O)C(=CO2)OCCCCCSC3=C4C=CC(=CC4=NC=C3)C(F)(F)F [EHT 1864] + C[C@@H](Oc1cc(-c2cnn(C3CCNCC3)c2)cnc1N)c1c(Cl)ccc(F)c1Cl [Crizotinib] (partner 1 µM)
How it was run: as §1

[4] = compound: C1COCCN1CC2=CC(=O)C(=CO2)OCCCCCSC3=C4C=CC(=CC4=NC=C3)C(F)(F)F [EHT 1864] + O=C(CCCCCCC(=O)Nc1ccccc1)NO [Vorinostat] (partner 1 µM)
How it was run: as §1

HOP-62
relative viability ([1]; first compound 0.04 µM): 0.584
relative viability ([1]; first compound 0.4 µM): 0.466
relative viability ([1]; first compound 1.265 µM): 0.485
relative viability ([1]; first compound 4 µM): 0.794
relative viability ([2]; first compound 0.04 µM): 0.453
relative viability ([2]; first compound 0.4 µM): 0.516
relative viability ([2]; first compound 1.265 µM): 0.438
relative viability ([2]; first compound 4 µM): 0.425
relative viability ([3]; first compound 0.04 µM): 0.944
relative viability ([3]; first compound 0.4 µM): 0.952
relative viability ([3]; first compound 1.265 µM): 0.784
relative viability ([3]; first compound 4 µM): 0.996
relative viability ([4]; first compound 0.04 µM): 0.631
relative viability ([4]; first compound 0.4 µM): 0.616
relative viability ([4]; first compound 1.265 µM): 0.676
relative viability ([4]; first compound 4 µM): 0.667

LC-2-ad
relative viability ([1]; first compound 0.04 µM): 0.808
relative viability ([1]; first compound 0.1265 µM): 0.634
relative viability ([1]; first compound 0.4 µM): 0.88
relative viability ([1]; first compound 1.265 µM): 0.855
relative viability ([1]; first compound 4 µM): 0.806
relative viability ([2]; first compound 0.04 µM): 0.481
relative viability ([2]; first compound 0.1265 µM): 0.436
relative viability ([2]; first compound 0.4 µM): 0.447
relative viability ([2]; first compound 1.265 µM): 0.46
relative viability ([2]; first compound 4 µM): 0.464
relative viability ([3]; first compound 0.04 µM): 0.493
relative viability ([3]; first compound 0.1265 µM): 0.454
relative viability ([3]; first compound 0.4 µM): 0.432
relative viability ([3]; first compound 1.265 µM): 0.526
relative viability ([3]; first compound 4 µM): 0.564
relative viability ([4]; first compound 0.04 µM): 0.659
relative viability ([4]; first compound 0.1265 µM): 0.432
relative viability ([4]; first compound 0.4 µM): 0.677
relative viability ([4]; first compound 1.265 µM): 0.648
relative viability ([4]; first compound 4 µM): 0.625

LCLC-97TM1
relative viability ([1]; first compound 0.04 µM): 0.275
relative viability ([1]; first compound 0.1265 µM): 0.257
relative viability ([1]; first compound 0.4 µM): 0.152
relative viability ([1]; first compound 1.265 µM): 0.223
relative viability ([1]; first compound 4 µM): 0.234
relative viability ([2]; first compound 0.04 µM): 0.225
relative viability ([2]; first compound 0.1265 µM): 0.15
relative viability ([2]; first compound 0.4 µM): 0.183
relative viability ([2]; first compound 1.265 µM): 0.187
relative viability ([2]; first compound 4 µM): 0.241
relative viability ([3]; first compound 0.04 µM): 0.399
relative viability ([3]; first compound 0.4 µM): 0.42
relative viability ([3]; first compound 1.265 µM): 0.442
relative viability ([3]; first compound 4 µM): 0.285
relative viability ([4]; first compound 0.04 µM): 0.848
relative viability ([4]; first compound 0.1265 µM): 0.509
relative viability ([4]; first compound 0.4 µM): 0.813
relative viability ([4]; first compound 1.265 µM): 0.613
relative viability ([4]; first compound 4 µM): 0.74

LCLC-103H
relative viability ([1]; first compound 0.04 µM): 0.823
relative viability ([1]; first compound 0.1265 µM): 0.686
relative viability ([1]; first compound 0.4 µM): 0.818
relative viability ([1]; first compound 1.265 µM): 0.698
relative viability ([1]; first compound 4 µM): 0.5
relative viability ([2]; first compound 0.04 µM): 0.506
relative viability ([2]; first compound 0.1265 µM): 0.393
relative viability ([2]; first compound 0.4 µM): 0.504
relative viability ([2]; first compound 1.265 µM): 0.467
relative viability ([2]; first compound 4 µM): 0.498
relative viability ([3]; first compound 0.04 µM): 1.15
relative viability ([3]; first compound 0.1265 µM): 1.03
relative viability ([3]; first compound 0.4 µM): 1.02
relative viability ([3]; first compound 1.265 µM): 1.05
relative viability ([3]; first compound 4 µM): 1.01
relative viability ([4]; first compound 0.04 µM): 0.758
relative viability ([4]; first compound 0.1265 µM): 0.666
relative viability ([4]; first compound 0.4 µM): 0.791
relative viability ([4]; first compound 1.265 µM): 0.779
relative viability ([4]; first compound 4 µM): 0.712

LK-2
relative viability ([1]; first compound 0.04 µM): 0.462
relative viability ([1]; first compound 0.4 µM): 0.296
relative viability ([1]; first compound 1.265 µM): 0.443
relative viability ([1]; first compound 4 µM): 0.286
relative viability ([2]; first compound 0.04 µM): 0.67
relative viability ([2]; first compound 0.4 µM): 0.523
relative viability ([2]; first compound 1.265 µM): 0.639
relative viability ([2]; first compound 4 µM): 0.588
relative viability ([3]; first compound 0.04 µM): 0.232
relative viability ([3]; first compound 0.1265 µM): 0.23
relative viability ([3]; first compound 0.4 µM): 0.225
relative viability ([3]; first compound 1.265 µM): 0.241
relative viability ([3]; first compound 4 µM): 0.221
relative viability ([4]; first compound 0.04 µM): 0.312
relative viability ([4]; first compound 0.1265 µM): 0.265
relative viability ([4]; first compound 0.4 µM): 0.206
relative viability ([4]; first compound 1.265 µM): 0.253
relative viability ([4]; first compound 4 µM): 0.284

LOU-NH91
relative viability ([1]; first compound 0.04 µM): 0.746
relative viability ([1]; first compound 0.1265 µM): 0.67
relative viability ([1]; first compound 0.4 µM): 0.759
relative viability ([1]; first compound 1.265 µM): 0.735
relative viability ([1]; first compound 4 µM): 0.755
relative viability ([2]; first compound 0.04 µM): 0.512
relative viability ([2]; first compound 0.1265 µM): 0.524
relative viability ([2]; first compound 0.4 µM): 0.53
relative viability ([2]; first compound 1.265 µM): 0.495
relative viability ([2]; first compound 4 µM): 0.589
relative viability ([3]; first compound 0.04 µM): 0.764
relative viability ([3]; first compound 0.1265 µM): 0.73
relative viability ([3]; first compound 0.4 µM): 0.741
relative viability ([3]; first compound 1.265 µM): 0.733
relative viability ([3]; first compound 4 µM): 0.758
relative viability ([4]; first compound 0.04 µM): 0.924
relative viability ([4]; first compound 0.1265 µM): 0.799
relative viability ([4]; first compound 0.4 µM): 1.02
relative viability ([4]; first compound 1.265 µM): 0.876
relative viability ([4]; first compound 4 µM): 0.856

LU99A
relative viability ([1]; first compound 0.04 µM): 0.445
relative viability ([1]; first compound 0.1265 µM): 0.203
relative viability ([1]; first compound 0.4 µM): 0.359
relative viability ([1]; first compound 1.265 µM): 0.308
relative viability ([1]; first compound 4 µM): 0.403
relative viability ([2]; first compound 0.04 µM): 0.438
relative viability ([2]; first compound 0.1265 µM): 0.375
relative viability ([2]; first compound 0.4 µM): 0.364
relative viability ([2]; first compound 1.265 µM): 0.396
relative viability ([2]; first compound 4 µM): 0.374
relative viability ([3]; first compound 0.04 µM): 0.604
relative viability ([3]; first compound 0.1265 µM): 0.489
relative viability ([3]; first compound 0.4 µM): 0.575
relative viability ([3]; first compound 1.265 µM): 0.593
relative viability ([3]; first compound 4 µM): 0.537
relative viability ([4]; first compound 0.04 µM): 0.58
relative viability ([4]; first compound 0.1265 µM): 0.347
relative viability ([4]; first compound 0.4 µM): 0.426
relative viability ([4]; first compound 1.265 µM): 0.579
relative viability ([4]; first compound 4 µM): 0.324

LXF-289
relative viability ([1]; first compound 0.04 µM): 1.14
relative viability ([1]; first compound 0.1265 µM): 1.01
relative viability ([1]; first compound 0.4 µM): 1.03
relative viability ([1]; first compound 1.265 µM): 1.07
relative viability ([1]; first compound 4 µM): 1.1
relative viability ([2]; first compound 0.04 µM): 0.594
relative viability ([2]; first compound 0.1265 µM): 0.572
relative viability ([2]; first compound 0.4 µM): 0.542
relative viability ([2]; first compound 1.265 µM): 0.537
relative viability ([2]; first compound 4 µM): 0.581
relative viability ([3]; first compound 0.04 µM): 0.802
relative viability ([3]; first compound 0.1265 µM): 0.791
relative viability ([3]; first compound 0.4 µM): 0.752
relative viability ([3]; first compound 1.265 µM): 0.706
relative viability ([3]; first compound 4 µM): 0.688
relative viability ([4]; first compound 0.04 µM): 0.773
relative viability ([4]; first compound 0.1265 µM): 0.697
relative viability ([4]; first compound 0.4 µM): 0.712
relative viability ([4]; first compound 1.265 µM): 0.735
relative viability ([4]; first compound 4 µM): 0.734
